Reference: US11382328B2, “Rapid drug discovery methods for pathogen inactivation” (priority 2019, dated 2022)
Several values for one entry are separate records, joined by “and”; a condition that tells them apart may be missing. Equal entries are not always repeated.

Tested on: E. coli strain W3110
Test: Synergy assays: Biolog chemical sensitivity panels with Group IB metal, coefficient of drug interaction (CDI) from relative growth
Assay type: cell-based
Details: for CDI (coefficient of drug interaction), gold + biocide: Gold (μM); for CDI (coefficient of drug interaction), copper mixed with biocide: Copper (mM) section
[1] = Copper (mM), 1st of 3 copper concentrations (head line not shown), biocide concentration 1 of 4, E. coli
[2] = Copper (mM), 1st of 3 copper concentrations (head line not shown), biocide concentration 3 of 4, E. coli
[3] = Copper (mM), 1st of 3 copper concentrations (head line not shown), biocide concentration 4 of 4, E. coli
[4] = Copper (mM), 2nd of 3 copper concentrations (head line not shown), biocide concentration 1 of 4, E. coli
[5] = Copper (mM), 2nd of 3 copper concentrations (head line not shown), biocide concentration 3 of 4, E. coli
[6] = Copper (mM), 2nd of 3 copper concentrations (head line not shown), biocide concentration 4 of 4, E. coli
[7] = Copper (mM), 3rd of 3 copper concentrations (head line not shown), biocide concentration 1 of 4, E. coli
[8] = Copper (mM), 3rd of 3 copper concentrations (head line not shown), biocide concentration 3 of 4, E. coli
[9] = Copper (mM), 3rd of 3 copper concentrations (head line not shown), biocide concentration 4 of 4, E. coli
[10] = Silver 0.5 μM, biocide concentration 1 of 4
[11] = Silver 0.5 μM, biocide concentration 4 of 4
[12] = Silver 1.0 μM, biocide concentration 1 of 4
[13] = Silver 1.0 μM, biocide concentration 4 of 4
[14] = Silver 5.0 μM, biocide concentration 4 of 4
[15] = Gold section of Table 5, first of three gold concentrations (μM, value not given), biocide concentration 2 of 4
[16] = Gold section of Table 5, first of three gold concentrations (μM, value not given), biocide concentration 3 of 4
[17] = Gold section of Table 5, first of three gold concentrations (μM, value not given), biocide concentration 4 of 4
[18] = Gold section of Table 5, second of three gold concentrations (μM, value not given), biocide concentration 2 of 4
[19] = Gold section of Table 5, second of three gold concentrations (μM, value not given), biocide concentration 3 of 4
[20] = Gold section of Table 5, second of three gold concentrations (μM, value not given), biocide concentration 4 of 4
[21] = Gold section of Table 5, third of three gold concentrations (μM, value not given), biocide concentration 1 of 4
[22] = Gold section of Table 5, third of three gold concentrations (μM, value not given), biocide concentration 2 of 4
[23] = Gold section of Table 5, third of three gold concentrations (μM, value not given), biocide concentration 3 of 4
[24] = Gold section of Table 5, third of three gold concentrations (μM, value not given), biocide concentration 4 of 4

## polymyxin B
[1]
  CDI (coefficient of drug interaction): 0.90
[2]
  CDI (coefficient of drug interaction): Tox
[3]
  CDI (coefficient of drug interaction): Tox
[4]
  CDI (coefficient of drug interaction): 0.97 and 0.75
[5]
  CDI (coefficient of drug interaction): Tox
[6]
  CDI (coefficient of drug interaction): Tox
[7]
  CDI (coefficient of drug interaction): 0.82 and 0.56
[8]
  CDI (coefficient of drug interaction): Tox
[9]
  CDI (coefficient of drug interaction): Tox
First of 3 gold concentrations, biocide concentration 1 of 4
  CDI (coefficient of drug interaction), gold + biocide: 1.07 and 0.97
First of 3 gold concentrations, biocide concentration 4 of 4
  CDI (coefficient of drug interaction), gold + biocide: Tox
Second of 3 gold concentrations, biocide concentration 1 of 4
  CDI (coefficient of drug interaction), gold + biocide: 1.10 and 0.99
Second of 3 gold concentrations, biocide concentration 4 of 4
  CDI (coefficient of drug interaction), gold + biocide: Tox
Third of 3 gold concentrations, biocide concentration 1 of 4
  CDI (coefficient of drug interaction), gold + biocide: 1.00 and 0.92
Third of 3 gold concentrations, biocide concentration 4 of 4
  CDI (coefficient of drug interaction), gold + biocide: Tox
[10]
  CDI: 1.37 and 0.79
[11]
  CDI: Tox
[12]
  CDI: 1.23 and 0.85
[13]
  CDI: Tox
[14]
  CDI: Tox

## protamine sulfate
1st of 3 copper concentrations (value not shown), 1st of four biocide concentrations
  CDI (coefficient of drug interaction), copper mixed with biocide: 0.79
1st of 3 copper concentrations (value not shown), 2nd of four biocide concentrations
  CDI (coefficient of drug interaction), copper mixed with biocide: Tox
1st of 3 copper concentrations (value not shown), 3rd of four biocide concentrations
  CDI (coefficient of drug interaction), copper mixed with biocide: Tox
1st of 3 copper concentrations (value not shown), 4th of four biocide concentrations
  CDI (coefficient of drug interaction), copper mixed with biocide: Tox
2nd of 3 copper concentrations (value not shown), 1st of four biocide concentrations
  CDI (coefficient of drug interaction), copper mixed with biocide: 1.09
2nd of 3 copper concentrations (value not shown), 2nd of four biocide concentrations
  CDI (coefficient of drug interaction), copper mixed with biocide: 1.26
2nd of 3 copper concentrations (value not shown), 3rd of four biocide concentrations
  CDI (coefficient of drug interaction), copper mixed with biocide: Tox
2nd of 3 copper concentrations (value not shown), 4th of four biocide concentrations
  CDI (coefficient of drug interaction), copper mixed with biocide: Tox
3rd of 3 copper concentrations (value not shown), 1st of four biocide concentrations
  CDI (coefficient of drug interaction), copper mixed with biocide: 0.56
3rd of 3 copper concentrations (value not shown), 2nd of four biocide concentrations
  CDI (coefficient of drug interaction), copper mixed with biocide: Tox
3rd of 3 copper concentrations (value not shown), 3rd of four biocide concentrations
  CDI (coefficient of drug interaction), copper mixed with biocide: Tox
3rd of 3 copper concentrations (value not shown), 4th of four biocide concentrations
  CDI (coefficient of drug interaction), copper mixed with biocide: Tox
[15]
  CDI (coefficient of drug interaction): 0.96
[16]
  CDI (coefficient of drug interaction): 0.49
[17]
  CDI (coefficient of drug interaction): Tox
Gold section of Table 5, second of three gold concentrations (μM, value not given), biocide concentration 1 of 4
  CDI (coefficient of drug interaction): 0.99
[18]
  CDI (coefficient of drug interaction): 0.94
[19]
  CDI (coefficient of drug interaction): 2.22
[20]
  CDI (coefficient of drug interaction): Tox
[21]
  CDI (coefficient of drug interaction): 0.92
[22]
  CDI (coefficient of drug interaction): 1.09
[23]
  CDI (coefficient of drug interaction): 1.56
[24]
  CDI (coefficient of drug interaction): Tox
Silver 0.5 μM, 1st of four biocide concentrations, E. coli
  CDI (coefficient of drug interaction), silver + biocide: 1.10
Silver 0.5 μM, 2nd of four biocide concentrations, E. coli
  CDI (coefficient of drug interaction), silver + biocide: 1.15
Silver 0.5 μM, 3rd of four biocide concentrations, E. coli
  CDI (coefficient of drug interaction), silver + biocide: Tox
Silver 0.5 μM, 4th of four biocide concentrations, E. coli
  CDI (coefficient of drug interaction), silver + biocide: Tox
Silver 1.0 μM, 1st of four biocide concentrations, E. coli
  CDI (coefficient of drug interaction), silver + biocide: 0.95
Silver 1.0 μM, 2nd of four biocide concentrations, E. coli
  CDI (coefficient of drug interaction), silver + biocide: 1.00
Silver 1.0 μM, 3rd of four biocide concentrations, E. coli
  CDI (coefficient of drug interaction), silver + biocide: Tox
Silver 1.0 μM, 4th of four biocide concentrations, E. coli
  CDI (coefficient of drug interaction), silver + biocide: Tox
Silver 5.0 μM, 1st of four biocide concentrations, E. coli
  CDI (coefficient of drug interaction), silver + biocide: 0.84
Silver 5.0 μM, 2nd of four biocide concentrations, E. coli
  CDI (coefficient of drug interaction), silver + biocide: 0.90
Silver 5.0 μM, 3rd of four biocide concentrations, E. coli
  CDI (coefficient of drug interaction), silver + biocide: Tox
Silver 5.0 μM, 4th of four biocide concentrations, E. coli
  CDI (coefficient of drug interaction), silver + biocide: Tox

## spiramycin
[1]
  CDI (coefficient of drug interaction): 1.00
[2]
  CDI (coefficient of drug interaction): 0.94
[3]
  CDI (coefficient of drug interaction): Tox
[4]
  CDI (coefficient of drug interaction): 0.89
Copper (mM), 2nd of 3 copper concentrations (head line not shown), biocide concentration 2 of 4, E. coli
  CDI (coefficient of drug interaction): Tox
[5]
  CDI (coefficient of drug interaction): Tox
[6]
  CDI (coefficient of drug interaction): Tox
[7]
  CDI (coefficient of drug interaction): 0.92
Copper (mM), 3rd of 3 copper concentrations (head line not shown), biocide concentration 2 of 4, E. coli
  CDI (coefficient of drug interaction): 0.91
[8]
  CDI (coefficient of drug interaction): 3.40
[9]
  CDI (coefficient of drug interaction): Tox
Gold section of Table 5, first of three gold concentrations (μM, value not given), biocide concentration 1 of 4
  CDI (coefficient of drug interaction): 1.03
[15]
  CDI (coefficient of drug interaction): 1.00
[16]
  CDI (coefficient of drug interaction): Tox
[17]
  CDI (coefficient of drug interaction): Tox
[18]
  CDI (coefficient of drug interaction): 0.67
[19]
  CDI (coefficient of drug interaction): Tox
[20]
  CDI (coefficient of drug interaction): Tox
[21]
  CDI (coefficient of drug interaction): 0.84
[22]
  CDI (coefficient of drug interaction): 0.33
[23]
  CDI (coefficient of drug interaction): Tox
[24]
  CDI (coefficient of drug interaction): Tox
[10]
  CDI: 0.83
Silver 0.5 μM, biocide concentration 2 of 4
  CDI: Tox
Silver 0.5 μM, biocide concentration 3 of 4
  CDI: Tox
[11]
  CDI: Tox
[12]
  CDI: 0.96
Silver 1.0 μM, biocide concentration 2 of 4
  CDI: Tox
Silver 1.0 μM, biocide concentration 3 of 4
  CDI: Tox
[13]
  CDI: Tox
Silver 5.0 μM, biocide concentration 1 of 4
  CDI: 0.83
Silver 5.0 μM, biocide concentration 2 of 4
  CDI: Tox
Silver 5.0 μM, biocide concentration 3 of 4
  CDI: Tox
[14]
  CDI: Tox
